Consider 14 compounds from paper PMC12655551, “Design, Synthesis, and Evaluation of Pyrrole-Based Selective MAO-B Inhibitors with Additional AChE Inhibitory and Neuroprotective Properties Identified via Virtual Screening” (Pharmaceuticals, 2025).

SMILES strings stand for the structures.

One assay has as its target T1, BChE (Equus caballus, UniProt P81908).
T1 construct: purchased Sigma-Aldrich, Hamburg, Germany; host or cells: equine serum
The assay can be described thus: biochemical. The conditions noted are these: for IC50: means ± SD of three experiments, read-out: BChE IC50; for inhibition at 200 µM: read-out: Inhibition Activity 200 µM BChE. The procedure: (§1) AChE and BChE inhibitory activity of the newly synthesized pyrrole-based compounds was measured using the microplate assay described by Ellman et al. with the modifications added by López et al.. The compounds were tested at concentrations between 0.01 and 200 μM. First, they were dissolved in phosphate buffer (PBS) (8 mM K2HPO4, 2.3 mM NaH2PO4, 0.15 M NaCl, pH 7.5), assisted by the addition of no more than 5% MeOH. Then, they were serially diluted with PBS to provide the concentration range needed. Acetylcholinesterase from Electrophorus electricus and butyrylcholinesterase from equine serum (Sigma-Aldrich, Hamburg, Germany) were used with a substrate solution of 5,5′-dithiobis(2-nitrobenzoic acid) (DTNB) with acetylthiocholine iodide (ATCI) or butyrylthiocholine iodide (BTCI), respectively (0.04 M Na2HPO4, 0.2 mM DTNB, 0.24 mM ATCI or BTCI, pH 7.5). A total of 50 μL of AChE or BChE (0.25 U/mL, in PBS) and 50 μL of the tested compound solution were added to the wells. Incubation of the plates was performed at room temperature for 30 min. Then, 100 μL of substrate solution was added to start the enzymatic reaction. […] Enzyme activity was calculated as an inhibition percentage compared to an assay including buffer instead of an inhibitor.

Assay [1] addresses T2, recombinant human MAO-B (hMAOB) (Homo sapiens, UniProt P27338).
T2 sequence (P27338 1-520): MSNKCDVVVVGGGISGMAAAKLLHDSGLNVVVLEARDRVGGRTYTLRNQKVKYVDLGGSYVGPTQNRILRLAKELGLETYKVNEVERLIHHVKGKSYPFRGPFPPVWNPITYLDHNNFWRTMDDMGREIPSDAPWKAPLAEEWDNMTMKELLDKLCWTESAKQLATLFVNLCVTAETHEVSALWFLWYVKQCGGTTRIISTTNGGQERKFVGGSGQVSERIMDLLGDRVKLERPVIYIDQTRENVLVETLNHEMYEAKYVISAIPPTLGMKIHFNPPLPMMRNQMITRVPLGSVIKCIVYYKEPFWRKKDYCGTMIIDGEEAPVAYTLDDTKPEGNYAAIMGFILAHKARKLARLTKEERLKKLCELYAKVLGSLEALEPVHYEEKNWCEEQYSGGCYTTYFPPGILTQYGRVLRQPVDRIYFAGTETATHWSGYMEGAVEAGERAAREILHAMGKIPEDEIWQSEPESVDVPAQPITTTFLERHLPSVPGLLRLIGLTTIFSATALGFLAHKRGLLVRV
In words: biochemical. It is filed as biochemical. The note with it: for inhibition at 1 µM: 1 µM compound. The procedure: (§2) Monoamine oxidase (MAO) activity for both recombinant human MAO-A (hMAOA) and MAO-B (hMAOB) was assessed using a fluorometric assay based on the Amplex® UltraRed reagent. This method, originally reported by Bautista-Aguilera et al. and later adapted with minor changes by Kasabova-Angelova et al., detects hydrogen peroxide or peroxidase activity present in enzymes or biological samples. In this assay, Amplex® Red reacts in a 1:1 molar ratio with hydrogen peroxide in the presence of peroxidase, producing the red-fluorescent compound resorufin. Due to resorufin’s strong extinction coefficient (58,000 ± 5000 cm^−1·M^−1), measurements could be accurately taken using either fluorometric or spectrophotometric methods. […] The control conditions included the use of purified hMAOA or hMAOB in reaction buffer, enzyme solutions with hydrogen peroxide, and buffer alone. All the test compounds were initially prepared at a 1 µM final concentration. These compounds were combined with either hMAOA or hMAOB and loaded into a 96-well plate (with eight replicates per test compound), followed by incubation for 30 min at 37 °C in the dark. Subsequently, a 50 µL detection mix was added to each well. This mix contained Amplex® Red, horseradish peroxidase (HRP), and tyramine substrate, all prepared in a reaction buffer. As this enzymatic reaction proceeded continuously, the fluorescence signal was recorded every 30 min (at 0, 30, 60, 90, 120, and 150 min) to track enzymatic kinetics.

The target in assay [2] is T3, recombinant human MAO-A (hMAOA) (Homo sapiens, UniProt P21397).
T3 sequence (P21397 1-527): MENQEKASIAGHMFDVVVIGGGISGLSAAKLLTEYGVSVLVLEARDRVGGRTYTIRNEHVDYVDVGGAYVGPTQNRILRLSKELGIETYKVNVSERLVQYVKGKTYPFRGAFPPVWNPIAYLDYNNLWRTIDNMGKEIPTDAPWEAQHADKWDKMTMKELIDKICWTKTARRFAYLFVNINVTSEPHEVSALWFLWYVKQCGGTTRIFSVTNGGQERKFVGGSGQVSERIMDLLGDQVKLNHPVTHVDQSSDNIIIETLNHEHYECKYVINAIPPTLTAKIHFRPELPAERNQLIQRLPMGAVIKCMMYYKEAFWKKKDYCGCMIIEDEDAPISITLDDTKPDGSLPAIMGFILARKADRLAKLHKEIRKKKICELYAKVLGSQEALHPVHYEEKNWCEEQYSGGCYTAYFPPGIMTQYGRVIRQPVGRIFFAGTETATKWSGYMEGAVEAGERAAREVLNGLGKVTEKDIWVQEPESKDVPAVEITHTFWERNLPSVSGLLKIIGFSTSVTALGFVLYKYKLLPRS
In words: MAO-A inhibition, fluorometric Amplex UltraRed assay. It is filed as biochemical. The note with it: for inhibition at 1 µM: 1 µM compound, read-out: Inhibition Activity 1 µM MAO-A; for IC50: means ± SD of three experiments, read-out: MAO-A IC50. The procedure: as §2

The next assay concerns the target T4, AChE (Electrophorus electricus, UniProt O42275).
T4 construct: purchased Sigma-Aldrich, Hamburg, Germany
The assay can be described thus: biochemical. The conditions noted are these: for inhibition at 200 µM: 200 µM compound; for IC50: means ± SD of three experiments. It is filed as biochemical. The procedure:
as §1

[3] abbreviates: means ± SD of three experiments.

T4 sequence (O42275 24-633): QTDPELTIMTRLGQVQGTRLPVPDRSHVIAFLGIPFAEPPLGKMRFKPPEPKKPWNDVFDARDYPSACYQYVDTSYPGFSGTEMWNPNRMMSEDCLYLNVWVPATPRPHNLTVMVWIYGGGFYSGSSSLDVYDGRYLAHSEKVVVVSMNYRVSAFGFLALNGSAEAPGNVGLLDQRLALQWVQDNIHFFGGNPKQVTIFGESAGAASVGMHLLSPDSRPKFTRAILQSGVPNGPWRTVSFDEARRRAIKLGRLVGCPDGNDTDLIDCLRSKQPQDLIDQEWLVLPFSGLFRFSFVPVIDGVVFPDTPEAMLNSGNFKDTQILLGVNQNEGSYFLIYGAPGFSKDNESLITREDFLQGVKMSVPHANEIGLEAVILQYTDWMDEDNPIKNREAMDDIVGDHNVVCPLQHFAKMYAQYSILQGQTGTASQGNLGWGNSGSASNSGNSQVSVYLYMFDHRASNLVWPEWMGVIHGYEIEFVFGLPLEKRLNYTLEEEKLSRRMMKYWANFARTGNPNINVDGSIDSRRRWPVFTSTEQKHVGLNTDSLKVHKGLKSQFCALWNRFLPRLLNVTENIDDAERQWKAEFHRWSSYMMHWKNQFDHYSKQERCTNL
T1 sequence (P81908 whole entry): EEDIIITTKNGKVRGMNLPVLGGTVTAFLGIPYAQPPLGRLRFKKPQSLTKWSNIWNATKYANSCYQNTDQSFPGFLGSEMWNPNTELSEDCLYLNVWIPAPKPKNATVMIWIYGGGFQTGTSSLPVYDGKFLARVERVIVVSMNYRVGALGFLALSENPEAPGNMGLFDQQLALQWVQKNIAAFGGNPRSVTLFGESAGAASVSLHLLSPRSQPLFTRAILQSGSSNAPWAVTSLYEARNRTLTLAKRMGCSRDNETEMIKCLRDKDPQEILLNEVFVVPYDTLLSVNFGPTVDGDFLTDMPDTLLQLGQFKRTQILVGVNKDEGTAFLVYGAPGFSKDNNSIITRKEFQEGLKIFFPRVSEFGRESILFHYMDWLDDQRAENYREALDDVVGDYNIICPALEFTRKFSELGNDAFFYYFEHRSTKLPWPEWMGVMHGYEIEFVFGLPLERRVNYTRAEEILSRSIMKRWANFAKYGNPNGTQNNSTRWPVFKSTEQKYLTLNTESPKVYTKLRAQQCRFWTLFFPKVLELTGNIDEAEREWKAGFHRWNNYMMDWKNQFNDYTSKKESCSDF

For orientation: IC50 means the midpoint of a concentration-inhibition curve. One may read the inhibition as the drop in the measured response relative to a control, in per cent. Take `Cc1ccc(C)n1-c1ccc(Br)cc1` [EM-DC-4, 1-(4-bromophenyl)-2,5-dimethyl-1H-pyrrole]: the IC50 at BChE is > 200 µM; in assay [1] (setting [3]), > 100 µM; in assay [2], 0.32 ± 0.1 µM; against AChE, > 200 µM. The values for the inhibition at 200 µM at BChE and on AChE were 0% and 1.4 ± 0.38%, respectively. Besides, the inhibition at 1 µM came out at 98 ± 7.1% in assay [1] and 60 ± 6.8% in assay [2].
Consider `Cc1ccc(C)n1CC(C)c1ccc(O)cc1` (stereo not drawn) [EM-DC-11, 4-[1-(2,5-dimethyl-1H-pyrrol-1-yl)propan-2-yl]phenol], for which the IC50 at BChE was > 200 µM; in assay [1] (setting [3]) it was > 100 µM; in assay [2] it was > 100 µM; against AChE, > 200 µM. The inhibition at 200 µM at BChE worked out at 30.6 ± 2.11%; against AChE it was 29 ± 2.47%. For the same compound, the inhibition at 1 µM in assay [1] is 97 ± 7.1%; in assay [2] it was 97 ± 6.9%.
As to `CCC(C(=O)O)n1c(C)ccc1C` (stereo not drawn) [EM-DC-21, 2-(2,5-dimethyl-1H-pyrrol-1-yl)butanoic acid], the IC50 on BChE is > 200 µM; in assay [1] (setting [3]), > 100 µM; in assay [2] it was > 100 µM; against AChE, > 200 µM. Further, the inhibition at 200 µM at BChE and against AChE was 0% each time. In addition, the inhibition at 1 µM in assay [1] and in assay [2] was 99 ± 7.1% throughout.
For the compound `COc1cc2c(cc1OC)C(=O)C(CC1CCN(Cc3ccccc3)CC1)C2` (stereo not drawn) [Donepezil, reference compound], on BChE, the inhibition at 200 µM worked out at 92.25 ± 0.22%.
For `Cc1ccc(C)n1CCN1CCOCC1` [EM-DC-16, 4-[2-(2,5-dimethyl-1H-pyrrol-1-yl)ethyl]morpholine], the IC50 at BChE was > 200 µM; in assay [1] (setting [3]), 0.47 ± 0.1 µM; in assay [2] it was 0.46 ± 0.1 µM; against AChE, 11.8 ± 1.1 µM. The inhibition at 200 µM at BChE turned out to be 48.8 ± 1.5%; at AChE it was 85.3 ± 2.43%. Moreover, the values for the inhibition at 1 µM in assay [1] and in assay [2] were 80 ± 7.1% and 80 ± 7.3%, respectively.
As to `COc1ccc2c3c1O[C@H]1C[C@@H](O)C=C[C@@]31CCN(C)C2` [Galanthamine, reference compound], the inhibition at 200 µM on BChE came to 89.16 ± 0.44%.
As for `Cc1ccc(C)n1-c1ccc(C(=O)NCC(=O)O)cc1` [EM-DC-24, [4-(2,5-dimethyl-1H-pyrrol-1-yl)benzamido]acetic acid], the IC50 is > 200 µM on BChE, 0.59 ± 0.1 µM in assay [1] (setting [3]), 0.58 ± 0.1 µM in assay [2] and > 200 µM against AChE. The inhibition at 200 µM on BChE worked out at 0%; at AChE, 24.1 ± 4.1%. Besides, the inhibition at 1 µM in assay [1] and in assay [2] was 80 ± 7.1% throughout.
Take `Cc1cc(-n2c(C)ccc2C)c2ccccc2n1` [EM-DC-13, 4-(2,5-dimethyl-1H-pyrrol-1-yl)-2-methylquinoline]: the IC50 worked out at 10.5 ± 0.17 µM at BChE, 0.41 ± 0.1 µM in assay [1] (setting [3]), 0.38 ± 0.1 µM in assay [2] and 3.81 ± 0.26 µM at AChE. For the same compound, the inhibition at 200 µM on BChE was found to be 83.81 ± 0.67%; on AChE, 91.2 ± 1.22%. Moreover, the inhibition at 1 µM in assay [1] and in assay [2] was 80 ± 7.1% each time.
For the compound `Cc1ccc(C)n1-c1ccccc1Br` [EM-DC-3, 1-(2-bromophenyl)-2,5-dimethyl-1H-pyrrole], the IC50 on BChE was > 200 µM; in assay [1] (setting [3]) it was 0.56 ± 0.1 µM; in assay [2], 0.52 ± 0.1 µM; on AChE it was > 200 µM. Further, the results for the inhibition at 200 µM at BChE and against AChE were 0.04 ± 9.01% and 8.32 ± 2.64%, respectively. Besides, the values for the inhibition at 1 µM in assay [1] and in assay [2] were 75 ± 7.1% and 70 ± 7.2%, respectively.
Consider `Cc1ccc(C)n1C(Cc1ccc(O)c(O)c1)C(=O)O` (stereo not drawn) [EM-DC-23, 3-(3,4-dihydroxyphenyl)-2-(2,5-dimethyl-1H-pyrrol-1-yl)propanoicacid], for which the IC50 at BChE was > 200 µM; in assay [1] (setting [3]), > 100 µM; in assay [2] it was > 100 µM; on AChE, > 200 µM. Moreover, the inhibition at 200 µM at BChE came out at 0%; against AChE, 21.8 ± 2.14%. Also, the inhibition at 1 µM was 98 ± 7.1% in assay [1] and 98 ± 7.3% in assay [2].
For the compound `Cc1ccc(C)n1-c1ccc(O)c(C(=O)O)c1` [EM-DC-18, 5-(2,5-dimethyl-1H-pyrrol-1-yl)-2-hydroxybenzoic acid], the IC50 at BChE is > 200 µM; in assay [1] (setting [3]), > 100 µM; in assay [2], > 100 µM; against AChE it was > 200 µM. For the same compound, the figures for the inhibition at 200 µM on BChE and against AChE were 0% and 16 ± 1.4%, respectively. Also, the inhibition at 1 µM in assay [1] came to 98 ± 7.1%; in assay [2] it was 98 ± 6.5%.
With `Cc1ccc(C)n1CCc1ccc(O)cc1` [EM-DC-9, 4-[2-(2,5-dimethyl-1H-pyrrol-1-yl)ethyl]phenol], the IC50 is 69.5 ± 7.52 µM at BChE, > 100 µM in assay [1] (setting [3]), > 100 µM in assay [2] and 76.8 ± 4.68 µM against AChE. For the same compound, the inhibition at 200 µM was 73.7 ± 4.5% at BChE and 72.9 ± 3.02% on AChE. Moreover, the inhibition at 1 µM was 98 ± 7.1% in assay [1] and 98 ± 6.8% in assay [2].
For the compound `Cc1ccc(C)n1CCc1ccccc1` [EM-DC-7, 2,5-dimethyl-1-(2-phenylethyl)-1H-pyrrole], the IC50 at BChE is > 200 µM; in assay [1] (setting [3]), 0.49 ± 0.1 µM; in assay [2] it was 0.51 ± 0.1 µM; on AChE it was > 200 µM. Moreover, the inhibition at 200 µM was determined as 43.9 ± 1.7% on BChE and 11.9 ± 2.33% against AChE. Besides, the figures for the inhibition at 1 µM in assay [1] and in assay [2] were 75 ± 7.1% and 80 ± 7.2%, respectively. Moreover, the “MAO-B IC50” value in assay [1] (setting [3]) is “submicromolar range”.
As for `Cc1ccc(C)n1C(C)(C)CO` [EM-DC-14, 2-(2,5-dimethyl-1H-pyrrol-1-yl)-2-methylpropan-1-ol], the IC50 at BChE is > 200 µM; in assay [1] (setting [3]), 0.46 ± 0.1 µM; in assay [2] it was 0.44 ± 0.1 µM; on AChE, > 200 µM. Further, the figures for the inhibition at 200 µM on BChE and against AChE were 0% and 33.2 ± 2.03%, respectively. Besides, the inhibition at 1 µM in assay [1] and in assay [2] was 75 ± 7.1% each time.
